Experimental data taken from PMC3441706 (PLoS ONE, 2012).

Columns and labels:
Format in all cases: cell-based, human
HT-29 cells = assay: Flow cytometric cell cycle analysis; settings: HT-29, 24 hours
Procedure: (§1) HT-29, HeLa and HCT116 cells were plated in 6-well plates. […] CPT was used at 50 nM and 1 µM. To analyze the cell cycle distribution, cells were collected after 24 hours of incubation and washed with PBS. Cells were fixed in 70% ethanol for at least 2 hours. For analysis, cells were transferred into PBS, incubated with RNAse A (0.04 µg/ml final concentration) for 30 minutes at 37°C, treated with […] propidium iodide for 30 min at 4°C and then analyzed by flow cytometry using BD FACScan (Becton, Dickinson and Company, Franklin Lakes, NJ, USA). The resulting DNA histograms were quantified using ModFit LT (Verity Software House, Topsham, ME, USA).

HeLa cells [1] = assay: Flow cytometric cell cycle analysis; settings: 24 hours
Procedure: as §1

HCT116 cells [2] = assay: Flow cytometric cell cycle analysis; settings: HCT116, 24 hours
Procedure: as §1

γH2AX (Ser139) = assay: Immunofluorescence staining and quantification of γH2AX in HeLa cells
Procedure: (§2) HCT116 and HeLa cells were seeded on glass cover slips in 6-well plates. 24 hours after plating, HCT116 cells were incubated with 0.15, 0.5 and 1 µM NVX-412 and 1 µM CPT for 24 hours for staining of p-p53. For investigating γH2AX, HeLa cells were incubated with 0.21, 0.5 and 1 µM NVX-412 and 1 µM CPT for 3 or 24 hours. Additionally, cells were allowed to recover for 24 hours in normal growth medium after 24 hours of incubation with NVX-412 or CPT (wash-out experiment). After the respective treatments, cells were washed and fixed with 4% methanol-free formaldehyde (Polysciences Inc. Warrington, PA, USA) for 15 minutes at room temperature and then permeabilized with 0.2% Triton X-100/PBS for 2 minutes at room temperature. After blocking with goat serum (5%) in 1% BSA/0.3% Triton X-100/PBS, the respective primary antibody was added and cells were incubated at 4°C overnight. Antibodies used were: mouse p-p53 (Ser15) (Cell Signaling Technology, Danvers, MA, USA) at 1∶100 dilution and mouse p-H2AX (Ser139) (Millipore, Billerica, MA, USA) at 1∶1000 dilution in 1% BSA/PBS, respectively. Cells were then washed 3 times for 10 minutes with 0.25% BSA/0.1% Triton X-100/PBS and incubated with the Alexa Fluor 488 conjugated secondary anti-mouse antibody (1∶1000 in 0.25% BSA/0.1% Triton X-100/PBS) for 1 hour at room temperature in the dark. Cells were washed 3 times for 10 minutes with 0.05% Tween-20/PBS containing Hoechst 33342 (Sigma Aldrich, Vienna, AUT) and mounted with mounting medium (Fluoprep, bioMérieux, Marcy l'Etoile, FRA). Fluorescence was immediately recorded on a Zeiss LSM700 laser scanning microscope.
The common procedure for assessing γH2AX induction is to count γH2AX foci. Since with NVX-412 and the positive control CPT γH2AX activation was that strong, no distinguishable and countable foci were seen. Therefore, the average γH2AX fluorescence intensity per nucleus was determined. To this end, γH2AX intensities within a certain field were measured using Quantity One –4.6.9 (Basic freeware version, Bio-Rad Laboratories, Hercules, CA, USA) and were divided by the number of nuclei in this field.

HeLa cells [3] = assay: DNA replication rate (BrdU incorporation ELISA); settings: 24 hours treatment then 24 hours in normal growth medium
Procedure: (§3) HeLa and HCT116 cells were plated in black 96-well plates. After cells were allowed to recover for 24 hours NVX-412 or CPT was added in fresh growth medium. After 24 hours of incubation a chemiluminescent BrdU Incorporation ELISA (Roche Applied Science, Penzberg, Germany) was performed with half of the plates according to the manufacturer’s protocol. Cells in the remaining plates were allowed to recover for 24 hours in normal growth medium before DNA replication was measured (wash-out experiment). To check whether a possible decline in DNA replication rate is not simply due to lower cell numbers because of cell death induction, the proportion of viable cells was determined in parallel by a MTT-based cytotoxicity assay according to the manufacturer’s protocol (EZ4U, Biomedica, Vienna, Austria). Colorimetric (at 492 and 620 nm) and chemiluminescent measurements were performed using a FLUOstar OPTIMA (BMG Labtech, Ortenberg, Germany).

HCT116 cells [4] = assay: DNA replication rate (BrdU incorporation ELISA); settings: HCT116, 24 hours treatment then 24 hours in normal growth medium
Procedure: as §3

p-p53 (Ser15) [5] = assay: Western Blot for p-p53 (Ser15) in HCT116 cells; settings: HCT116, 24 and 48 hours, 1 µM (control)
Procedure: Treated cells were directly lysed in NP40 cell lysis buffer (Invitrogen, Grand Island, NY, USA) containing protease and phosphatase inhibitors. Protein concentrations were measured colorimetrically (DC Protein Assay, Bio-Rad Laboratories, Hercules, CA, USA). Proteins were separated by SDS - polyacrylamide gel electrophoresis and blotted onto nitrocellulose membranes (Whatman™, Vienna, AUT). Equal loading was checked by Ponceau S (SERVA, Heidelberg, GER) staining. Bound antigen was visualized with the enhanced chemiluminescence detection system (Roche Diagnostics, Indianapolis, IN, USA). These procedures were performed according to the manufacturer’s protocols. Antibodies specific for the following proteins of interest were used: pChk1 (Ser296), p-p53 (Ser15), β-Tubulin and GAPDH were obtained from Cell Signaling Technology (Danvers, MA, USA) at 1∶1000 dilution. Secondary antibodies were peroxidase-tagged goat anti-rabbit or anti-mouse IgGs (Cell Signaling Technology) (1∶2000).

p-p53 (Ser15) [6] = assay: Immunofluorescence staining of p-p53 (Ser15) in HCT116 cells; settings: HCT116, 24 hours, 1 µM (positive control)
Procedure: as §2

[7] = tested on: RKO p53+/+ or p53−/− cells; assay: Determination of p53 status dependency; settings: RKO p53+/+ vs p53−/−, 72 hours, viable cell numbers
Procedure: (§4) The isogenic colon carcinoma cells lines HCT116 p53+/+ or p53−/− and RKO p53+/+ or p53−/− were cultured in 12-well plates. After a recovery period of 24 hours, NVX-412 or Nutlin-3 was added in fresh growth medium at the indicated concentrations. […] After 24 or 72 hours cell numbers were determined with a Beckman Coulter ViCell XR.

[8] = tested on: HCT116 p53+/+ or p53−/− cells; assay: Determination of p53 status dependency; settings: HCT116 p53+/+ vs p53−/−, 72 hours, viable cell numbers
Procedure: as §4

SMILES | Cell cycle distribution (HT-29 cells; 50 nM) | Cell cycle distribution (HT-29 cells; 1 µM) | Cell cycle distribution (HeLa cells [1]; 50 nM) | Cell cycle distribution (HeLa cells [1]; 1 µM) | Cell cycle distribution (HCT116 cells [2]; 50 nM) | Cell cycle distribution (HCT116 cells [2]; 1 µM) | γH2AX induction (γH2AX (Ser139); 3 hours) | γH2AX levels after recovery (wash-out) (γH2AX (Ser139); 24 hours treatment then 24 hours without drug) | DNA replication rate after recovery (wash-out) (HeLa cells [3]) | DNA replication rate after recovery (wash-out) (HCT116 cells [4]) | Phosphorylated p53 (Western Blot) (p-p53 (Ser15) [5]) | p-p53 (Ser15) immunofluorescence staining (p-p53 (Ser15) [6]) | p53 status dependency of sensitivity [7] | p53 status dependency of sensitivity [8]
CC[C@@]1(O)C(=O)OCc2c1cc1n(c2=O)Cc2cc3ccccc3nc2-1 [CPT, (S)-(+)-Camptothecin, reference compound] | G2/M arrest | S-phase arrest | G2/M arrest | S-phase arrest | G2/M-phase arrest | most of the cells were already dead | Only a slight induction of γH2AX | not reversible | a recovery was only observed at the lowest concentration tested | a recovery was only observed at the lowest concentration tested | strong induction | positive for nuclear staining of p-p53 (Ser15) | – | –
COc1ccc(C2=N[C@@H](c3ccc(Cl)cc3)[C@@H](c3ccc(Cl)cc3)N2C(=O)N2CCNC(=O)C2)c(OC(C)C)c1 [Nutlin-3, reference compound] | – | – | – | – | – | – | – | – | – | – | – | – | p53+/+ cells being much more sensitive than p53−/− cells | p53+/+ cells being much more sensitive than p53−/− cells
